Each compound was assayed against T1, TrkA (Homo sapiens, UniProt P04629) (assay: TrkA tyrosine kinase substrate phosphorylation assay (Src peptide, 33P-ATP, p81 filter plates)). Details: GST-fusion of TrkA intracellular domain; 20-40 nM TrkA, 30 uM ATP, 50 uM Src peptide, RT 120 min.
T1 construct: The enzyme is a GST-fusion of the intracellular domain expressed in SF9 cells; purchased Regeneron; host or cells: SF9 cells
Type: biochemical
Description: The compounds of the present invention have valuable pharmacologic properties. Different compounds from this class are particularly effective at inhibiting the trkA kinase enzyme at concentrations which range from 0.0001 to 1 μM and additionally show specificity relative to other kinases. Substrate phosphorylation assays were carried out as follows:
Screening format: Tyrosine kinase activity is being measured using a synthetic peptide substrate. The enzyme is a GST-fusion of the intracellular domain expressed in SF9 cells. The enzyme is expressed and purified by Regeneron. The enzyme is preincubated with cold ATP and Mg to allow autophosphorylation prior to running the screen. This increases the initial rate of catalysis approximately 3 fold. The assay is performed in 96 well microtitre plates, and reaction products are detected following filtration through millipore p81 phosphocellulose plates. Assay Conditions

T1 sequence (P04629 440-796 limits assumed, species assumed): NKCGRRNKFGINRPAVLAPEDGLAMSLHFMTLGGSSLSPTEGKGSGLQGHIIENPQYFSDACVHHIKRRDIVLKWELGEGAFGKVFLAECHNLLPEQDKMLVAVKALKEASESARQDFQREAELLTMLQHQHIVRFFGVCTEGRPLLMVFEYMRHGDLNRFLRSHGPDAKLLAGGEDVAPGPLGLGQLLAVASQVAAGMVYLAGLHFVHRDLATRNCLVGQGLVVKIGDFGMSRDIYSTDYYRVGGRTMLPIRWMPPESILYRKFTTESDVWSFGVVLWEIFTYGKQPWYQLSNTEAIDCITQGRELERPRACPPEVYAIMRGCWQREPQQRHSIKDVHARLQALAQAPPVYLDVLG

Question: For `O=C1Nc2ccccc2/C1=C/Nc1ccc(S(=O)(=O)Nc2ccccn2)cc1` [Example 3, 4-{[(Z)-(2-oxo-1,2-dihydro-3H-indol-3-ylidene)methyl]amino}-N-(2-pyridinyl)benzenesulfonamide], which IC50 is on record?
Answer: 10 to 100 nM

Question: With `NS(=O)(=O)c1cccc(N/C=C2\C(=O)Nc3ccccc32)c1` [Example 5, 3-{[(Z)-(2-oxo-1,2-dihydro-3H-indol-3-ylidene)methyl]amino}benzenesulfonamide] as the compound, how does the IC50 read?
Answer: 10 to 100 nM

Question: How did the IC50 turn out when `CNS(=O)(=O)Cc1ccc(N/N=C2\C(=O)Nc3cc(C(C)C)c(O)c(Cl)c32)cc1` [Example 1, {4-[(2Z)-2-(4-chloro-5-hydroxy-6-isopropyl-2-oxo-1,2-dihydro-3H-indol-3-ylidene)hydrazino]phenyl}-N-methylmethanesulfonamide] was run?
Answer: < 10 nM

Question: Which IC50 does the source give for `Cc1nnc(NS(=O)(=O)c2ccc(N/C=C3\C(=O)Nc4ccccc43)cc2)s1` [Example 4, N-(5-methyl-1,3,4-thiadiazol-2-yl)-4-{[(Z)-(2-oxo-1,2-dihydro-3H-indol-3-ylidene)methyl]amino}benzenesulfonamide] here?
Answer: 10 to 100 nM

Question: `CS(=O)(=O)Nc1ccc(N/C=C2\C(=O)Nc3ccccc32)cc1` [Example 2, N-(4-{[(Z)-(2-oxo-1,2-dihydro-3H-indol-3-ylidene)methyl]amino}phenyl)methanesulfonamide] was tested. Which IC50 did it give?
Answer: < 10 nM

Source: patent publication US7071217B2, “Substituted oxindole derivatives as tyrosine kinase inhibitors” (SmithKline Beecham Corporation, priority 2000, dated 2006)
